Key:
Format in all cases: cell-based, human
[1] = test system: NK1R (neurokinin 1 receptor) gene; experiment: Gene expression assay by real-time PCR (NK1R); conditions: melanocytes (KaMC), 2 nM substance P, 5 days; control group = 1
Description: (§1) Melanocytes (KaMC) (KCTC 12015BP) deposited in the Korean Collection for Type Culture (KCTC) were cultured in M-254 medium (Gibco BRL, NY, USA) supplemented with Human Melanocyte Growth Supplement (HMGS; Gibco BRL, NY, USA) on a 6-well plate, while changing the medium every other day, in a 5% CO2 incubator at 37° C. until the cells occupied 95% of the plate area (95% confluence). […] The cells not treated with substance P or the alpine wormwood (Artemisia umbelliformis) extract of Example 1 were used as a control group. After removing the medium form the melanocytes cultured on the 6-well plate, the cells were washed 2 times with cold phosphate-buffered saline (PBS) and the remaining water was completely removed. […] 1 μL of the RNA was quantified using Synergy II (Biotek, USA). […] After adding 10 μL of Taqman Gene Expression Master Mix (Life Technologies, USA) and 1 μL of Assays-on-DemandTM (Life Technologies, USA) of NK1R (ACCESSION: NM_001058) and EDN1 (ACCESSION: NM_001168319) genes to 9 μL of the diluted cDNA, the expression of the genes was analyzed by relative quantification using 7500 Fast Real-Time PCR (Life Technologies, USA) with glyceraldehyde 3-phosphate dehydrogenase (GAPDH, ACCESSION: NM001256799) as a control gene. […]

[2] = test system: endothelin 1 (EDN1); experiment: Endothelin 1 ELISA assay of culture medium; conditions: melanocytes (KaMC) medium, 2 nM substance P; control group = 100%
Description: When the density of the melanocytes on the 6-well plate reached about 80% (˜80% confluence), they were incubated for a total of 5 days with 2 nM of stress-inducing substance P (Bachem Fechemikalien, Bubendorf, Switzerland) or the alpine wormwood (Artemisia umbelliformis) extract of Example 1 of different concentrations (0, 0.1, 1, 2 and 5 ppm). The cells not treated with substance P or the alpine wormwood (Artemisia umbelliformis) extract of Example 1 were used as a control group.
The culture medium of the cells treated with the extract in (2) of Test Example 1 were recovered and the amount of endothelin 1 (EDN1) comprised in the medium was measured at 450 nm using the human total endothelin ELISA kit (MyBioSource, USA).
Endothelin content (%)=(Absorbance/Total protein content)×100 [Equation 1]

[3] = test system: EDN1 (endothelin 1) gene; experiment: Gene expression assay by real-time PCR (EDN1); conditions: melanocytes (KaMC), 2 nM substance P, 5 days; control group = 1
Description: as §1

expression of the NK1R gene (relative quantification vs GAPDH) [1]: 4.2
SMILES: CSCC[C@H](NC(=O)[C@H](CC(C)C)NC(=O)CNC(=O)[C@H](Cc1ccccc1)NC(=O)[C@H](Cc1ccccc1)NC(=O)[C@H](CCC(N)=O)NC(=O)[C@H](CCC(N)=O)NC(=O)[C@@H]1CCCN1C(=O)[C@H](CCCCN)NC(=O)[C@@H]1CCCN1C(=O)[C@@H](N)CCCN=C(N)N)C(N)=O [substance P]
content of endothelin 1 (absorbance/total protein content x 100) [2]: 124%
expression of the EDN1 gene (relative quantification vs GAPDH) [3]: 3.6

Source: patent publication US20170105926A1, “COMPOSITION COMPRISING EXTRACT OF ALPINE WORMWOOD” (AMOREPACIFIC CORPORATION, priority 2014, published 2017)
